Data reported in patent publication US7563886B2, “Nucleoside releasing functional unit through oxidation and process for producing oligonucleotide containing thereof” (Japan Science and Technology Agency, priority 2003, dated 2009).

Assays:
[1] = Measurement of oxidation potential (E1/2); format: physicochemical; conditions: vs. NHE; 100 mM LiClO4 solution, room temperature
Method: The oxidation potential (E1/2) of benzoyl-^edaG was measured in 100 mM LiClO4 solution at room temperature by ALS electrochemical analyzer model 660-A. The scanning speed was 100 mV/sec. A glass carbon electrode was used as a sample electrode; a platinum wire as a counter electrode; and SCE as a reference electrode.

[2] = Photooxidation of single-stranded oligonucleotide, irradiation at 366 nm in the presence of riboflavin; format: physicochemical; conditions: single-stranded ODN, irradiated at 366 nm in the presence of riboflavin
Description: The inventors conducted photooxidization of the oligonucleotide (7) containing benzoyl-^edaG (^Bz-edaG), for example, 5′-d(TATAAT^Bz-edaGTAATAT)-3′.
The single-stranded oligonucleotide (ODN) 5′-d(TATAAT^edaGTAATAT)-3′ was irradiated at 366 nm in the presence of riboflavin.

[3] = Oxidation with sodium hexachloroiridate(IV); conditions: in 15 minutes

Row | oxidation potential (E1/2) [1] [V] | t1/2 of decomposition [2] [min] | decomposed at the site of the modified edaG [3] [%] | Substance
1 | 0.59 |  |  | benzoyl-^edaG [^Bz-edaG]
2 |  | 6.2 |  | 5′-d(TATAAT^edaGTAATAT)-3′
3 |  | 6.2 | 57 | 5′-d(TATAAT^Bz-edaGTAATAT)-3′
